Laboratory results from patent US8648038B2, “(2-aryloxyacetylamino)phenylpropionic acid derivatives, processes for preparation thereof and use thereof as medicaments” (Sanofi, priority 2010, dated 2014).

What follows are compounds tested against T1, GPR40 (Rattus norvegicus, UniProt Q8K3T4) (assay: In vitro FLIPR assay with recombinant HEK293 cells which express the GPCR GPR40 (intracellular Ca2+)). Conditions: recombinant HEK293 cells expressing GPR40; Fluo-4 Ca2+ signal; 100% = 10 μM linoleic acid.
T1 construct: expressed in transfected cells; host or cells: HEK293
T1 sequence (Q8K3T4 whole entry): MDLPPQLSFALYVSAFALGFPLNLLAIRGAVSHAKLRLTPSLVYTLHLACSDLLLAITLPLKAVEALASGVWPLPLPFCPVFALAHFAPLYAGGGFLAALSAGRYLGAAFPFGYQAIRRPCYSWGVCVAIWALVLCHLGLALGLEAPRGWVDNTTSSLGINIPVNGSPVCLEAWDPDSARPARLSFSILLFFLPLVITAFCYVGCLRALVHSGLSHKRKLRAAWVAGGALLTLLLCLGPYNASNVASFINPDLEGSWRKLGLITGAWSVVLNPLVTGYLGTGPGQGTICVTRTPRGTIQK
Format: cell-based
Procedure: In Vitro FLIPR Assay with Recombinant Cells which Express the GPCR GPR40
Function-testing assays were performed by means of the FLIPR technique (“Fluorescence Imaging Plate Reader”, Molecular Devices Corp.). For this purpose, agonist-induced changes were determined in the intracellular concentration of Ca^2+ in recombinant HEK293 cells which expressed the GPCR GPR40.
For the studies, cells were sown into 96-well microtiter plates (60 000 cells/well) and left to grow overnight. The medium was removed and the cells were incubated in buffer which contains the fluorescent dye Fluo-4. After this loading with dye, the cells were washed, test substance was added and changes were measured in the intracellular Ca^2+ concentration in the FLIPR instrument. Results were presented as the percentage change relative to the control (0%: no test substance added; 100%: 10 μM reference agonist linoleic acid added) and used to calculate dose/effect curves, and EC50 values were determined.

Row | Structure (SMILES) | EC50 [µM]
1 | CC#CC(CC(=O)O)c1ccc(NC(=O)C(C)Oc2cc(C)ccc2C(C)C)cc1 (stereo not drawn) [Example 4] | 0.094
2 | CC#CC(CC(=O)O)c1ccc(NC(=O)C(C)Oc2cc(C(C)C)ccc2C)cc1 (stereo not drawn) [Example 5] | 0.176
3 | CC#CC(CC(=O)O)c1ccc(NC(=O)C(C)Oc2cccc(C(C)C)c2)cc1 (stereo not drawn) [Example 6, 3-{4-[2-(3-Isopropylphenoxy)propionylamino]phenyl}hex-4-ynoic acid] | 0.071
4 | CC#CC(CC(=O)O)c1ccc(NC(=O)C(C)(C)Oc2ccc(C(C)C)cc2Br)cc1 (stereo not drawn) [Example 8] | 1.14
5 | CC#CC(CC(=O)O)c1ccc(NC(=O)C(Oc2ccc(C(C)C)cc2Br)C(C)C)cc1 (stereo not drawn) [Example 9] | 0.553
6 | CC#CC(CC(=O)O)c1ccc(NC(=O)C(C)(C)Oc2cccc(C(C)C)c2)cc1 (stereo not drawn) [Example 16] | 0.187
7 | CC#CC(CC(=O)O)c1ccc(NC(=O)C(C)(C)Oc2ccc(C(C)(C)C)cc2Br)cc1 (stereo not drawn) [Example 22] | 4.46
8 | COC(CC(=O)O)c1ccc(NC(=O)C(C)Oc2cc(C(C)C)ccc2C)cc1 (stereo not drawn) [Example 39] | 5.08
9 | COC(CC(=O)O)c1ccc(NC(=O)C(C)Oc2cc(C)ccc2C(C)C)cc1 (stereo not drawn) [Example 40, 3-{4-[2-(2-Isopropyl-5-methylphenoxy)propionylamino]phenyl}-3-methoxypropionic Acid] | 2.13
10 | COC(CC(=O)O)c1ccc(NC(=O)C(C)Oc2cccc(C(C)(C)C)c2)cc1 (stereo not drawn) [Example 42] | 10.7
11 | COC(CC(=O)O)c1ccc(NC(=O)C(C)(C)Oc2ccc(Cl)cc2Cl)cc1 (stereo not drawn) [Example 43] | 20.8
12 | COC(CC(=O)O)c1ccc(NC(=O)C(C)(C)Oc2cccc(C(C)C)c2)cc1 (stereo not drawn) [Example 47] | 1.16
